In ChEMBL document CHEMBL1201862, “PubChem BioAssay data set” (2004):
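Briefly, cells in 96-well plates were exposed to five compound concentrations for 48 h, and endpoints were estimated by linear interpolation. The concentration for 50% growth inhibition is given as GI50.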 Active and inactive are the calls of the source. Rule as the data show it: active = GI50 up to about 1.1 µM and inactive = higher.

How the values were obtained:
Assay in all cases: growth of human tumour cells (NCI), 48 h
OVCAR-8 = tested on: OVCAR-8
NCI-H23 = tested on: NCI-H23
LOX IMVI = tested on: LOX IMVI
786-0 = tested on: 786-0
U-251 = tested on: U-251
MDA-N = tested on: MDA-N
Malme-3M = tested on: Malme-3M
NCI-H522 = tested on: NCI-H522
A549 = tested on: A549
HT-29 = tested on: HT-29
M14 = tested on: M14
MOLT-4 = tested on: MOLT-4
TK-10 = tested on: TK-10
HCT-116 = tested on: HCT-116
BT-549 = tested on: BT-549
SK-MEL-28 = tested on: SK-MEL-28
OVCAR-4 = tested on: OVCAR-4
NCI-H460 = tested on: NCI-H460
HCC 2998 = tested on: HCC 2998

Measured: GI50

NS(=O)(=O)c1nnc(NC(=O)N(c2ccccc2)c2ccccc2)s1
inactive: OVCAR-8 19.9 µM | NCI-H23 19.1 µM | LOX IMVI 15.9 µM | 786-0 23 µM | U-251 43.7 µM | MDA-N 25.4 µM | Malme-3M 21.2 µM | NCI-H522 16.8 µM | A549 26.3 µM | HT-29 27.6 µM | M14 15.2 µM | MOLT-4 21.1 µM | TK-10 41.2 µM | HCT-116 29.4 µM | BT-549 16.1 µM | SK-MEL-28 39 µM | OVCAR-4 27.9 µM

NC(=O)[N+](=CC(=S)Nc1ccccc1Cl)C(N)=O
inactive: OVCAR-8 > 100 µM | NCI-H23 > 100 µM | LOX IMVI > 100 µM | 786-0 > 100 µM | NCI-H460 > 100 µM | U-251 > 100 µM | MDA-N > 100 µM | NCI-H522 > 100 µM | A549 > 100 µM | HT-29 > 100 µM | M14 > 100 µM | MOLT-4 > 100 µM | TK-10 > 100 µM | HCT-116 > 100 µM | BT-549 86.9 µM | OVCAR-4 > 100 µM | HCC 2998 > 100 µM

O=C1N/C(=N\C2CCCCC2)C2(CCN(CCCC3(c4ccc(F)cc4)OCCO3)CC2)N1c1ccccc1
inactive: OVCAR-8 24.8 µM | NCI-H23 17.9 µM | LOX IMVI 22.8 µM | 786-0 16.6 µM | U-251 15.9 µM | MDA-N 15.4 µM | Malme-3M 16.7 µM | NCI-H522 14.9 µM | A549 21.4 µM | HT-29 16.6 µM | M14 19.4 µM | MOLT-4 15.1 µM | TK-10 15.7 µM | HCT-116 12.2 µM | BT-549 4.61 µM | SK-MEL-28 18.6 µM | OVCAR-4 18.5 µM

CN1CN(c2ccccc2)C2(CCN(CCC3COc4ccccc4O3)CC2)C1=O (stereo not drawn)
inactive: OVCAR-8 32.9 µM | NCI-H23 30.4 µM | LOX IMVI 23 µM | 786-0 36.4 µM | U-251 27.5 µM | MDA-N 19.8 µM | Malme-3M 19.5 µM | NCI-H522 13.8 µM | A549 33.1 µM | HT-29 3.88 µM | M14 15.6 µM | MOLT-4 17 µM | TK-10 17.7 µM | HCT-116 5.92 µM | BT-549 18 µM | SK-MEL-28 19.6 µM | HCC 2998 8.07 µM
